Columns and labels:
Type in all cases: cell-based, Human
A549 = assay: Cell growth inhibition assay (SRB), A549; conditions: A549 (lung), 96 hours
From the text: (§1) Cancer cells used in this study to determine the effect of quinazoline compounds were obtained from the following sources: Human OVCAR-3 (ovary), MCF-7 (breast, hormone-dependent), Hs 578T (breast), MDA-MB-231 (breast), HeLa (cervix), PC3 (prostate), HepG2 (liver), A549 (lung), Caki-1 (kidney), HT-29 (colon), HCT116 (colon) and PANC-1 (pancreas) from the American Type Culture Collection (ATCC) (Manassas, Va.); U251 (brain) from Riken (Japan); MKN-45 (stomach) from DSMZ (Germany); UMRC2 (kidney) and Lox IMVI (melanoma) from the United States National Cancer Institute (Bethesda, Md.). All cell lines except Hs 578T, MDA-MB-231, HCT116, UMRC2, Caki-1 and PANC-1 were grown in RPMI1640 medium (Invitrogen, Carlsbad, Calif.) supplemented with 10% fetal bovine serum (“FBS”), 1 mM sodium pyruvate, 10 mM HEPES and 100 U/ml penicillin and 100 μg/ml streptomycin (“P/S”). Hs 578T, MDA-MB-231, HCT116, UMRC2, Caki-1 and PANC-1 cells were maintained in Dulbecco's modified Eagle's medium (“DMEM”, Invitrogen) supplemented with 10% FBS, P/S, 10 mM HEPES and 2 mM L-glutamine. All cells were incubated at 37° C. under humidified 5% CO2.
(§2) The growth inhibition of the substituted quinazoline derivative compounds against a variety of human tumor cells was evaluated. The relative importance of particular substituent groups on the compounds was also studied. The substituted quinazoline derivative compounds, prepared as described above, were tested, along with DMSO as a control.
(§3) The growth inhibition assay of various compounds against 15 human tumor cell lines was performed using the Sulforhodamnine B (“SRB”) method (Skehan et al., J. National Cancer Institute, 82: 1107-1112 (1990)). Briefly, exponentially growing tumor cells were seeded into a 96-well plate at a density of 2-3×10^3 cells/well and treated with quinazoline compounds the next day. Triplicate wells were used for each treatment. The cells were. incubated with the various compounds for 96 hours at 37° C. in a humidified 5% CO2 atmosphere. After 96-hour incubation, cells were fixed with 10% trichloroacetic acid (“TCA”), incubated for 1 hour at 4° C., and washed 3 times with tap water. Subsequently cells were stained with 0.4% sulforhodamine B in 1% acetic acid for 30 minutes, washed 4 times with 1% acetic acid, and air-dried again. After 5 minutes agitation in 10 mM Tris solution, the absorbance of each well was measured at 530 nm using Benchmark Plus Microplate reader (Bio-Rad Laboratories, Hercules, Calif.).
(§4) To translate the OD530 values into the number of live cells in each well, the OD530 values were compared to those on standard OD530—versus—cell number curves generated for each cell line. The percent survival was calculated using the formula: % Survival=live cell number [test]/live cell number [control]×100
(§5) The IC50 values were calculated by non-linear regression analysis.

HepG2 = assay: Cell growth inhibition assay (SRB), HepG2; conditions: HepG2 (liver), 96 hours, read-out: Inhibition of cell growth (IC50, μM) HepG 2
From the text: as §1, §2, §3, §4, §5

MKN-45 = assay: Cell growth inhibition assay (SRB), MKN-45; conditions: MKN-45 (stomach), 96 hours
From the text: as §1, §2, §3, §4, §5

PANC-1 = assay: Cell growth inhibition assay (SRB), PANC-1; conditions: PANC-1 (pancreas), 96 hours
From the text: as §1, §2, §3, §4, §5

HT-29 = assay: Cell growth inhibition assay (SRB), HT-29; conditions: HT-29 (colon), 96 hours
From the text: as §1, §2, §3, §4, §5

PC3 = assay: Cell growth inhibition assay (SRB), PC3; conditions: PC3 (prostate), 96 hours
From the text: as §1, §2, §3, §4, §5

U251 = assay: Cell growth inhibition assay (SRB), U251; conditions: U251 (brain), 96 hours
From the text: as §1, §2, §3, §4, §5

HeLa = assay: Cell growth inhibition assay (SRB), HeLa; conditions: HeLa (cervix), 96 hours
From the text: as §1, §2, §3, §4, §5

Lox IMVI = assay: Cell growth inhibition assay (SRB), Lox IMVI; conditions: Lox IMVI (melanoma), 96 hours
From the text: as §1, §2, §3, §4, §5

OVCAR-3 = assay: Cell growth inhibition assay (SRB), OVCAR-3; conditions: OVCAR-3 (ovary), 96 hours
From the text: as §1, §2, §3, §4, §5

MCF-7 = assay: Cell growth inhibition assay (SRB), MCF-7; conditions: MCF-7 (breast, hormone-dependent), 96 hours
From the text: as §1, §2, §3, §4, §5

MDA-MB-231 = assay: Cell growth inhibition assay (SRB), MDA-MB-231; conditions: MDA-MB-231 (breast), 96 hours
From the text: as §1, §2, §3, §4, §5

Hs 578T = assay: Cell growth inhibition assay (SRB), Hs 578T; conditions: Hs 578T (breast), 96 hours
From the text: as §1, §2, §3, §4, §5

UMRC2 = assay: Cell growth inhibition assay (SRB), UMRC2; conditions: UMRC2 (kidney), 96 hours
From the text: as §1, §2, §3, §4, §5

Caki-1 = assay: Cell growth inhibition assay (SRB), Caki-1; conditions: Caki-1 (kidney), 96 hours
From the text: as §1, §2, §3, §4, §5

Row | SMILES | IC50 (A549) [µM] | IC50 (HepG2) [µM] | IC50 (MKN-45) [µM] | IC50 (PANC-1) [µM] | IC50 (HT-29) [µM] | IC50 (PC3) [µM] | IC50 (U251) [µM] | IC50 (HeLa) [µM] | IC50 (OVCAR-3) [µM] | IC50 (MCF-7) [µM] | IC50 (MDA-MB-231) [µM] | IC50 (Lox IMVI) [µM] | IC50 (Hs 578T) [µM] | IC50 (UMRC2) [µM] | IC50 (Caki-1) [µM]
1 | Cc1cc(C)c(Nc2ncnc3ccc([N+](=O)[O-])cc23)c(C)c1 [RX-1122] | 2 | 2.39 | 1.33 | 1.42 | 2.55 | 0.88 | 0.57 | 1.3 | 1.01 | 0.63 | 0.73 | 1.1 | 1.35 | 1.09 | 1.11
2 | FC(F)(F)c1ccccc1CNc1ncnc2ccc(Br)cc12 [RX-1260] | > 3 | 2.25 | > 3 | > 3 | > 3 | > 3 | 0.69 | > 3 | > 3 | 0.74 | > 3 | > 3 | > 3 | > 3 | > 3
3 | Fc1cc(Cl)ccc1Nc1ncnc2ccc(Br)cc12 [RX-1279] | 2.86 | 0.75 | > 3 | > 3 | > 3 | > 3 | 2.97 | > 3 | > 3 | > 3 | > 3 | > 3 | > 3 | > 3 | 2.15
4 | Cc1cccc2ncnc(NCCc3ccc(F)cc3)c12 [RX-1541] | 1.89 | 0.91 | > 3 | 0.22 | 1.26 | > 3 | 1.78 | > 3 | 2.86 | 1.26 | 0.47 | 2.96 | 0.53 | 0.37 | > 3
5 | Ic1ccc2ncnc(NC3CCCCC3)c2c1 [RX-1659] | > 3 | 1 | > 3 | > 3 | > 3 | > 3 | 0.51 | > 3 | > 3 | 0.36 | > 3 | 1.95 | > 3 | > 3 | 1.71
6 | FC(F)(F)c1ccccc1CNc1ncnc2ccc(I)cc12 [RX-1682] | > 3 | 1.51 | > 3 | > 3 | > 3 | > 3 | 0.53 | > 3 | > 3 | 0.55 | > 3 | > 3 | > 3 | > 3 | > 3
7 | Fc1cc(Cl)ccc1Nc1ncnc2ccc(I)cc12 [RX-1701] | > 3 | 1.16 | > 3 | > 3 | > 3 | > 3 | 2.19 | > 3 | > 3 | 1.36 | > 3 | > 3 | > 3 | > 3 | 2.85
8 | c1ccc(CCCCNc2ncnc3cc4[nH]cnc4cc23)cc1 [RX-1842] | > 3 | 2.47 | > 3 | > 3 | > 3 | > 3 | 1.93 | > 3 | > 3 | 1.34 | 0.84 | 1.15 | 1.05 | 1.98 | > 3
9 | Cn1cnc2cc3ncnc(NCCc4ccccc4F)c3cc21 [RX-1857] | > 3 | > 3 | > 3 | > 3 | > 3 | > 3 | > 3 | > 3 | > 3 | > 3 | > 3 | > 3 | > 3 | > 3 | 1.57
10 | Cn1cnc2cc3ncnc(NCc4cccc(F)c4)c3cc21 [RX-1881] | > 3 | 1.29 | > 3 | > 3 | > 3 | > 3 | 0.91 | > 3 | > 3 | 0.68 | > 3 | > 3 | > 3 | > 3 | 2.34

Continued, in another order:

Row | IC50 (A549) [µM] | IC50 (HepG2) [µM] | IC50 (MKN-45) [µM] | IC50 (PANC-1) [µM] | IC50 (HT-29) [µM] | IC50 (PC3) [µM] | IC50 (U251) [µM] | IC50 (HeLa) [µM] | IC50 (OVCAR-3) [µM] | IC50 (MCF-7) [µM] | IC50 (MDA-MB-231) [µM] | SMILES | IC50 (Lox IMVI) [µM] | IC50 (Hs 578T) [µM] | IC50 (UMRC2) [µM] | IC50 (Caki-1) [µM]
11 | 2.1 | 1.18 | > 3 | 0.34 | 2.07 | > 3 | 1.95 | > 3 | 2.6 | 1.53 | 0.46 | Fc1cccc(CCNc2ncnc3ccccc23)c1 [RX-1195] | 2.16 | 0.44 | 0.41 | > 3
12 | 2.4 | 0.9 | > 3 | > 3 | > 3 | > 3 | 0.56 | > 3 | > 3 | 0.58 | 0.88 | Fc1cccc(CCNc2ncnc3ccc(Br)cc23)c1 [RX-1242] | 0.73 | 1.03 | 1.29 | 2.39
13 | 1.92 | 0.9 | > 3 | > 3 | > 3 | > 3 | 0.42 | > 3 | > 3 | 0.55 | 0.34 | Brc1ccc2ncnc(NCCCCc3ccccc3)c2c1 [RX-1251] | 0.19 | 0.43 | 0.47 | 1.96
14 | > 3 | 0.3 | > 3 | 1.83 | > 3 | > 3 | 0.27 | > 3 | > 3 | 0.23 | > 3 | Fc1cccc(CCNc2ncnc3ccc(I)cc23)c1 [RX-1668] | > 3 | 0.89 | 1.83 | 2.93
15 | > 3 | 1.51 | > 3 | > 3 | > 3 | > 3 | 0.62 | > 3 | > 3 | 0.43 | 1.06 | Ic1ccc2ncnc(NCCCCc3ccccc3)c2c1 [RX-1670] | 0.88 | 1.35 | 1.53 | > 3
16 | > 3 | 0.85 | > 3 | > 3 | 1.7 | > 3 | 0.9 | > 3 | > 3 | 1.17 | > 3 | Cn1cnc2cc3ncnc(NCCc4cccc(F)c4)c3cc21 [RX-1894] | > 3 | > 3 | > 3 | 2.33

Reference: US7388014B2, “Quinazoline derivatives and therapeutic use thereof” (Rexahn Pharmaceuticals, Inc., priority 2004, dated 2008)
